Source: patent US11345712B2, “Protein-targeting compounds and pharmaceutical compositions thereof, and their therapeutic applications” (BioTheryX, Inc., priority 2019, dated 2022)

Test system: MOLM-13 cells
Assay: MOLM-13 cell viability assay (CellTiter-Glo)
Type: cell-based
Conditions: Homo sapiens, MOLM-13, 72 h, 3 days, concentration of 1 μM, read-out: Antiproliferative Activity (inhibition, MOLM-13 cell viability)
Outline: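 MOLM-13 AML cells in RPMI 1640 with 10% FBS, seeded at 2,500 cells/well and exposed to compound or DMSO for 3 days at 37° C, 5% CO2. Viability read as CellTiter-Glo luminescence after 10 min shaking.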

SMILES	cytotoxicity at 1 µM [%]
CC(C)(C)c1ccc(CC(=O)NCc2scc3c2CN(C2CCC(=O)NC2=O)C3=O)cc1 (stereo not shown) [II-62, 2-(4-(tert-butyl)phenyl)-N-((5-(2,6-dioxopiperidin-3-yl)-4-oxo-5,6-dihydro-4H-thieno[3,4-c]pyrrol-1-yl)methyl)acetamide]	25 to 50
COc1ccc(CC(=O)NCc2scc3c2CN(C2CCC(=O)NC2=O)C3=O)cc1C(C)C (stereo not shown) [II-63, N-((5-(2,6-dioxopiperidin-3-yl)-4-oxo-5,6-dihydro-4H-thieno[3,4-c]pyrrol-1-yl)methyl)-2-(3-isopropyl-4-methoxyphenyl)acetamide]	> 80
Cc1ccc(NCCCCCNCc2scc3c2CN(C2CCC(=O)NC2=O)C3=O)cc1Cl (stereo not shown) [II-64, 3-(1-(((5-((3-chloro-4-methylphenyl)amino)pentyl)amino)methyl)-4-oxo-4H-thieno[3,4-c]pyrrol-5(6H)-yl)piperidine-2,6-dione]	< 25
Cc1ccc(NCCCNCc2cc3c(s2)C(=O)N(C2CCC(=O)NC2=O)C3)cc1Cl (stereo not shown) [II-65, 3-(2-(((3-((3-chloro-4-methylphenyl)amino)propyl)amino)methyl)-6-oxo-4,6-dihydro-5H-thieno[2,3-c]pyrrol-5-yl)piperidine-2,6-dione]	< 25
C=C(C(=O)NCc1scc2c1CN(C1CCC(=O)NC1=O)C2=O)c1ccc(C)c(Cl)c1 (stereo not shown) [II-67, 2-(3-chloro-4-methylphenyl)-N-((5-(2,6-dioxopiperidin-3-yl)-4-oxo-5,6-dihydro-4H-thieno[3,4-c]pyrrol-1-yl)methyl)propenamide]	< 25
Cc1ccc(CC(=O)NCc2scc3c2CN(C2CCC(=O)NC2=O)C3=O)cc1N(C)C (stereo not shown) [II-68, 2-(3-(dimethylamino)-4-methylphenyl)-N-((5-(2,6-dioxopiperidin-3-yl)-4-oxo-5,6-dihydro-4H-thieno[3,4-c]pyrrol-1-yl)methyl)acetamide]	25 to 50
Cc1ccc(CS(=O)(=O)NCc2scc3c2CN(C2CCC(=O)NC2=O)C3=O)cc1Cl (stereo not shown) [II-69, 1-(3-chloro-4-methylphenyl)-N-((5-(2,6-dioxopiperidin-3-yl)-4-oxo-5,6-dihydro-4H-thieno[3,4-c]pyrrol-1-yl)methyl)methanesulfonamide]	50 to 80
CC(C)c1cccc(NC(=O)NCc2cc3c(s2)C(=O)N(C2CCC(=O)NC2=O)C3)c1 (stereo not shown) [II-70, 1-((5-(2,6-dioxopiperidin-3-yl)-6-oxo-5,6-dihydro-4H-thieno[2,3-c]pyrrol-2-yl)methyl)-3-(3-isopropylphenyl)urea]	> 80
CCN(CC)c1cccc(NC(=O)NCc2cc3c(s2)C(=O)N(C2CCC(=O)NC2=O)C3)c1 (stereo not shown) [II-71, 1-(3-(diethylamino)phenyl)-3-((5-(2,6-dioxopiperidin-3-yl)-6-oxo-5,6-dihydro-4H-thieno[2,3-c]pyrrol-2-yl)methyl)urea]	> 80
Cc1ccc(NC(=O)NCc2cc3c(s2)C(=O)N(C2CC(=O)NC2=O)C3)cc1Cl (stereo not shown) [II-72, 1-(3-chloro-4-methylphenyl)-3-((5-(2,5-dioxopyrrolidin-3-yl)-6-oxo-5,6-dihydro-4H-thieno[2,3-c]pyrrol-2-yl)methyl)urea]	25 to 50
Cc1ccc(NC(=O)NCc2cc3c(s2)C(=O)N(C2(C)CCC(=O)NC2=O)C3)cc1Cl (stereo not shown) [II-73, 1-(3-chloro-4-methylphenyl)-3-((5-(3-methyl-2,6-dioxopiperidin-3-yl)-6-oxo-5,6-dihydro-4H-thieno[2,3-c]pyrrol-2-yl)methyl)urea]	< 25
CC(C)c1ccc(CC(=O)NCc2scc3c2CN(C2CCC(=O)NC2=O)C3=O)cc1 (stereo not shown) [II-74, N-((5-(2,6-dioxopiperidin-3-yl)-4-oxo-5,6-dihydro-4H-thieno[3,4-c]pyrrol-1-yl)methyl)-2-(4-isopropylphenyl)acetamide]	< 25
CC1CCC(CC(=O)NCc2scc3c2CN(C2CCC(=O)NC2=O)C3=O)CC1 (stereo not shown) [II-75, N-((5-(2,6-dioxopiperidin-3-yl)-4-oxo-5,6-dihydro-4H-thieno[3,4-c]pyrrol-1-yl)methyl)-2-(4-methylcyclohexyl)acetamide]	< 25
O=C(Cc1cccc(N2CCCCC2)c1)NCc1scc2c1CN(C1CCC(=O)NC1=O)C2=O (stereo not shown) [II-76, N-((5-(2,6-dioxopiperidin-3-yl)-4-oxo-5,6-dihydro-4H-thieno[3,4-c]pyrrol-1-yl)methyl)-2-(3-(piperidin-1-yl)phenyl)acetamide]	> 80
CN(C)CCOc1cccc(CC(=O)NCc2scc3c2CN(C2CCC(=O)NC2=O)C3=O)c1 (stereo not shown) [II-77, 2-(3-(2-(dimethylamino)ethoxy)phenyl)-N-((5-(2,6-dioxopiperidin-3-yl)-4-oxo-5,6-dihydro-4H-thieno[3,4-c]pyrrol-1-yl)methyl)acetamide]	< 25
O=C(CN1CCOCC1)NCc1scc2c1CN(C1CCC(=O)NC1=O)C2=O (stereo not shown) [II-78, N-((5-(2,6-dioxopiperidin-3-yl)-4-oxo-5,6-dihydro-4H-thieno[3,4-c]pyrrol-1-yl)methyl)-2-morpholinoacetamide]	< 25

SMILES	cytotoxicity at 1 µM [%]
Cc1ccc(CC(=O)NCc2cc3c(s2)CN(C2CCC(=O)NC2=O)C3=O)cc1Cl (stereo not shown) [II-79, 2-(3-chloro-4-methylphenyl)-N-((5-(2,6-dioxopiperidin-3-yl)-4-oxo-5,6-dihydro-4H-thieno[2,3-c]pyrrol-2-yl)methyl)acetamide]	< 25
CN(C)CCOc1ccc(CC(=O)NCc2scc3c2CN(C2CCC(=O)NC2=O)C3=O)cc1 (stereo not shown) [II-80, 2-(4-(2-(dimethylamino)ethoxy)phenyl)-N-((5-(2,6-dioxopiperidin-3-yl)-4-oxo-5,6-dihydro-4H-thieno[3,4-c]pyrrol-1-yl)methyl)acetamide]	< 25
Cc1ccc(NC(=O)NCc2cc3c(s2)C(=O)N(C2CCC(=O)N(COC(=O)[C@H](N)C(C)C)C2=O)C3)cc1N(C)C (stereo partly drawn) [II-81, (3-(2-((3-(3-(dimethylamino)-4-methylphenyl)ureido)methyl)-6-oxo-4,6-dihydro-5H-thieno[2,3-c]pyrrol-5-yl)-2,6-dioxopiperidin-1-yl)methyl D-valinate]	> 80
Cc1ccc(NC(=O)NCc2cc3c(s2)C(=O)N(C2CCC(=O)N(COC(=O)[C@H](N)C(C)C)C2=O)C3)cc1Cl (stereo partly drawn) [II-82, (3-(2-((3-(3-chloro-4-methylphenyl)ureido)methyl)-6-oxo-4,6-dihydro-5H-thieno[2,3-c]pyrrol-5-yl)-2,6-dioxopiperidin-1-yl)methyl D-valinate]	> 80
O=C(Cc1ccc(N2CCOCC2)cc1)NCc1scc2c1CN(C1CCC(=O)NC1=O)C2=O (stereo not shown) [II-83, N-((5-(2,6-dioxopiperidin-3-yl)-4-oxo-5,6-dihydro-4H-thieno[3,4-c]pyrrol-1-yl)methyl)-2-(4-morpholinophenyl)acetamide]	< 25
CC(C)(C)c1ccc(CCCC(=O)NCc2scc3c2CN(C2CCC(=O)NC2=O)C3=O)cc1 (stereo not shown) [II-84, 4-(4-(tert-butyl)phenyl)-N-((5-(2,6-dioxopiperidin-3-yl)-4-oxo-5,6-dihydro-4H-thieno[3,4-c]pyrrol-1-yl)methyl)butanamide]	< 25
CN(C)c1ccc(CCCC(=O)NCc2scc3c2CN(C2CCC(=O)NC2=O)C3=O)cc1 (stereo not shown) [II-85, 4-(4-(dimethylamino)phenyl)-N-((5-(2,6-dioxopiperidin-3-yl)-4-oxo-5,6-dihydro-4H-thieno[3,4-c]pyrrol-1-yl)methyl)butanamide]	< 25
CC(CCc1ccc(C(C)(C)C)cc1)C(=O)NCc1scc2c1CN(C1CCC(=O)NC1=O)C2=O (stereo not shown) [II-86, 4-(4-(tert-butyl)phenyl)-N-((5-(2,6-dioxopiperidin-3-yl)-4-oxo-5,6-dihydro-4H-thieno[3,4-c]pyrrol-1-yl)methyl)-2-methylbutanamide]	< 25
CCC(C(=O)NCc1scc2c1CN(C1CCC(=O)NC1=O)C2=O)c1ccc(C)c(Cl)c1 (stereo not shown) [II-87, 2-(3-chloro-4-methylphenyl)-N-((5-(2,6-dioxopiperidin-3-yl)-4-oxo-5,6-dihydro-4H-thieno[3,4-c]pyrrol-1-yl)methyl)butanamide]	< 25
Cc1ccc(C(N)C(=O)NCc2scc3c2CN(C2CCC(=O)NC2=O)C3=O)cc1 (stereo not shown) [II-88, 2-amino-N-((5-(2,6-dioxopiperidin-3-yl)-4-oxo-5,6-dihydro-4H-thieno[3,4-c]pyrrol-1-yl)methyl)-2-(p-tolyl)acetamide]	< 25
NC(C(=O)NCc1scc2c1CN(C1CCC(=O)NC1=O)C2=O)c1cccc(Cl)c1 (stereo not shown) [II-89, 2-amino-2-(3-chlorophenyl)-N-((5-(2,6-dioxopiperidin-3-yl)-4-oxo-5,6-dihydro-4H-thieno[3,4-c]pyrrol-1-yl)methyl)acetamide]	< 25
Cc1ccc(NC(=O)NCc2cc3c(s2)C(=O)N([C@H]2CCC(=O)NC2=O)C3)cc1Cl [II-90, (S)-1-(3-chloro-4-methylphenyl)-3-((5-(2,6-dioxopiperidin-3-yl)-6-oxo-5,6-dihydro-4H-thieno[2,3-c]pyrrol-2-yl)methyl)urea]	> 80
Cc1ccc(NC(=O)NCc2cc3c(s2)C(=O)N([C@@H]2CCC(=O)NC2=O)C3)cc1Cl [II-91, (R)-1-(3-chloro-4-methylphenyl)-3-((5-(2,6-dioxopiperidin-3-yl)-6-oxo-5,6-dihydro-4H-thieno[2,3-c]pyrrol-2-yl)methyl)urea]	> 80
O=C(Cc1ccc(N2CCCC2)cc1)NCc1scc2c1CN(C1CCC(=O)NC1=O)C2=O (stereo not shown) [II-93, N-((5-(2,6-dioxopiperidin-3-yl)-4-oxo-5,6-dihydro-4H-thieno[3,4-c]pyrrol-1-yl)methyl)-2-(4-(pyrrolidin-1-yl)phenyl)acetamide]	< 25
CC(C)C(C(=O)NCc1scc2c1CN(C1CCC(=O)NC1=O)C2=O)c1ccc(C(C)(C)C)cc1 (stereo not shown) [II-94, 2-(4-(tert-butyl)phenyl)-N-((5-(2,6-dioxopiperidin-3-yl)-4-oxo-5,6-dihydro-4H-thieno[3,4-c]pyrrol-1-yl)methyl)-3-methylbutanamide]	< 25
